In the supplement of paper PMC4858399:

Legend:
Conditions in all cases: exposure time 48 h
[1] = tested on: Caenorhabditis elegans N2; assay: lowest effective concentration for larval growth inhibition (size below effect threshold); higher = less potent
How it was run: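 Chemical exposure ran for 48 h at 20°C: 50 C. elegans N2 L1 larvae per 96-well in K-medium with killed bacteria, 1% DMSO and 0.5, 1, 5, 10, 50, 100 or 200 µM chemical. Extinction of each worm, read as size on the Biosort, was log-transformed and averaged by well. The lowest effective concentration is the first dose whose plate-adjusted mean size is below a fixed value and remains so at all higher doses; the value is 5.665.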

[2] = tested on: Caenorhabditis elegans N2; assay: mean nematode size ln(EXT) after 48 h, plate-adjusted (DMSO control set to 6) (ln(EXT), control-adjusted); higher = larger nematodes / less growth inhibition
How it was run: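 Synchronised C. elegans N2 L1 larvae (50 per well, 4–6 wells per treatment) were grown for 48 h at 20°C in K-medium with killed OP50, 1% DMSO and 0.5–200 µM chemical. The Biosort measured each worm's extinction, and debris was removed by a growth model. Values were natural-logged and averaged per well. Mean size was then plate-adjusted by subtracting the vehicle control mean and adding 6.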

[3] = tested on: Caenorhabditis elegans N2; assay: AC50 for larval growth inhibition (Hill fit); higher = less potent
How it was run: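 After 48 h at 20°C in K-medium with killed OP50, 1% DMSO and 0.5–200 µM chemical, synchronised C. elegans N2 L1 larvae (50 per well, 96-well plates) were sized individually as extinction on a COPAS Biosort. These values were log-transformed and averaged per well, and wells with fewer than 10 worms were excluded. The AC50 was derived from a constrained Hill fit by weighted genetic-algorithm regression, and out-of-range values are censored.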

Row | SMILES | lowest effective concentration [1] [µM] | mean nematode size ln(EXT) (ln) ([2]; 0.5 µM) | mean nematode size ln(EXT) (ln) ([2]; 1 µM) | mean nematode size ln(EXT) (ln) ([2]; 5 µM) | mean nematode size ln(EXT) (ln) ([2]; 10 µM) | mean nematode size ln(EXT) (ln) ([2]; 50 µM) | mean nematode size ln(EXT) (ln) ([2]; 100 µM) | mean nematode size ln(EXT) (ln) ([2]; 200 µM) | AC50 for larval growth inhibition [3] [µM]
1 | CC1(C)C(C=C(Cl)Cl)C1C(=O)OC(C#N)c1cccc(Oc2ccccc2)c1 (centres undefined) [Cypermethrin] | 200 | 6.09 | 6.11 | 6.12 | 6.03 | 5.88 | 5.71 | 5.17 | > 200
2 | CCc1cccc(CC)c1N(COC)C(=O)CCl [Alachlor] | 200 | 6.11 | 6.07 | 6.12 | 6.1 | 5.76 | 5.74 | 5.1 | > 200
3 | CCOP(=S)(OCC)SCSCC [Phorate] | 100 | 5.9 | 5.87 | 5.8 | 5.76 | 5.68 | 5.55 | 5.21 | > 200
4 | NC(=O)N/N=C/c1ccc([N+](=O)[O-])o1 [5-Nitro-2-furaldehyde semicarbazone] | 50 | 5.78 | 5.76 | 5.75 | 5.76 | 5.65 | 5.61 | 5.24 | > 200
5 | CC(Cc1ccc(OCC(=O)O)cc1)NCC(O)c1csc(C(F)(F)F)n1 (centres undefined) | 200 | 5.86 | 5.88 | 5.84 | 6.03 | 5.84 | 5.89 | 5.4 | > 200
6 | CC(=O)CC(c1ccccc1)c1c(O)c2ccccc2oc1=O (centres undefined) [Warfarin] | 200 | 5.8 | 5.94 | 5.97 | 5.89 | 5.91 | 5.81 | 5.59 | > 200
7 | CC(C)(C)c1cc(O)ccc1O [tert-Butylhydroquinone] | 50 | 5.85 | 5.85 | 5.96 | 5.81 | 5.62 | 5.41 | 5.03 | > 200
8 | O=c1c(-c2ccc(O)cc2)coc2cc(O)cc(O)c12 [Genistein] | 200 | 5.88 | 5.89 | 5.92 | 5.85 | 5.89 | 5.89 | 5.53 | > 200
9 | O=C(Nc1ccccc1)Nc1ccnc(Cl)c1 [Forchlorfenuron] | 50 | 5.77 | 5.96 | 5.81 | 5.82 | 5.44 | 5.54 | 4.5 | > 200
10 | CC1(C)CC/C(=C\c2ccc(Cl)cc2)C1(O)Cn1cncn1 (centres undefined) [Triticonazole] | 200 | 5.82 | 5.72 | 6.07 | 5.84 | 5.91 | 5.68 | 5.25 | 120
11 | CC1(C)C(=O)N(Br)C(=O)N1Br [1,3-Dibromo-5,5-dimethylhydantoin] | 200 | 5.7 | 5.78 | 5.81 | 5.86 | 5.87 | 5.87 | 5.61 | > 200
